Measurements reported in US20250154193A1, “STEROID COMPOUND, AND PREPARATION METHOD THEREFOR AND APPLICATION THEREOF” (CHOLESGEN (SHANGHAI) CO., LTD., priority 2022, published 2025).

How the values were obtained:
SREBP pathway = assay: SREBP luciferase reporter gene system (SRE-luciferase assay) in Huh-7/SRE-Luc cells; assay type: cell-based; settings: Homo sapiens, sterol-deficient medium, compound treatment 16 hours, luciferase/GFP ratio
Procedure: Huh-7/SRE-Luc, a human hepatocellular carcinoma cell line, was grown in a culture medium containing DMEM, 10% fetal bovine serum, 100 units/mL penicillin, 100 µg/mL streptomycin, and 200 μg/mL G418.
The Huh-7/SRE-Luc cell line is a human hepatocellular carcinoma cell line Huh-7 stably expressing LDLR promoter-luciferase and green fluorescent protein (GFP). The LDLR promoter region contains a sterol regulatory element (SRE) that can effectively and sensitively respond to the regulation of the transcription factor SREBP. The GFP signal serves as an internal reference to indicate changes in cell number. Therefore, this cell line can be used to screen for active small molecules that regulate the SREBP signaling pathway. […] Cells were incubated in a sterol-deficient medium (5% lipoprotein-deficient serum, 2 μM Lovastatin, 10 μM mevalonate) and treated with corresponding concentrations of compounds for 16 hours. After compound treatment, the cells were lysed with lysis buffer (E397A, Promega), followed by the addition of luciferase substrate (E1500, Promega). The SRE-driven luciferase activity was measured using a BioTek Synergy HTX microplate reader (including but not limited to this type of instrument). The fluorescence intensity of enhanced green fluorescent protein (EGFP) was also measured using the BioTek microplate reader (including but not limited to this type of instrument) and used as an internal reference. The ratio of SRE-driven luciferase activity to GFP fluorescence intensity was used as an indicator of SREBP pathway activity. The test data of each test compound was analyzed using Prism software to obtain the IC50 parameter of the compound.
The inhibitory effect of the compounds of the present disclosure on the SREBP pathway was tested by the method of bioassay example 2. The concentration gradient of each compound was designed as 0.01, 0.03, 0.1, 0.3, 1.0, 3.0, and […], with DMSO as a vehicle control.

[1] = Liver microsomal metabolic stability assay; assay type: in vitro ADME; settings: rat liver microsomes, NADPH, 37° C., 0-60 minutes; read-out: Rat microsomal metabolic half-life (t1/2)
Procedure: PBS solution (100 mM), MgCl2 solution (100 mM), and NADPH solution (20 mM) were prepared respectively. Compound and testosterone (positive control) stock solutions were then prepared with dimethyl sulfoxide (DMSO), diluted to 100 µM with methanol for sample incubation, and stored at −10 to −30° C. 12.5 μL of rat liver microsomes (purchased from XenoTech, Cat. No.: R1000, Lot No.: 1310030, specification: 20 mg/mL), 432.5 µL of PBS solution (100 mM), 25 µL of NADPH solution (20 mM), and 25 μL of MgCl2 solution (100 mM) were added to a 96-well plate, mixed well, and pre-incubated at 37° C. for 5 minutes. 5 µL of substrate (test compound) solution was added to start the reaction. At specified time points of 0, 5, 15, 30, 45, and 60 minutes (0 and 60 minutes for the negative control group), 50 µL of the incubated samples were added to a stop plate containing 100 µL of ice-cold stop solution, vortexed for 1 minute to inactivate the reaction, and stored at −60 to −90° C. for subsequent analysis. Sample analysis of the test compound and the control compound testosterone was performed using LC-MS/MS method. Chromatographic peaks were integrated, calculated, and processed using Analyst software. Semi-quantitative analysis was performed for both the test compound and the control compound testosterone by calculating peak area ratios.

| SMILES | IC50 (SREBP pathway) | half-life at 1 µM [1] |
| --- | --- | --- |
| C[C@H](CCC[C@@H](O)c1ccccc1F)[C@H]1CC[C@H]2[C@@H]3CC[C@H]4[C@@H](O)[C@@H](O)CC[C@]4(C)[C@H]3CC[C@]12C (single isomer, unassigned) [compound 279, 24-[R-(2-fluorophenyl)(hydroxy)methyl]-5α-cholan-30,40-diol or 24-[S-(2-fluorophenyl)(hydroxy)methyl]-5α-cholan-30,40-diol] | 0.196 µM | 0.922 h |
| C[C@H](CCCC(C)(C)O)[C@H]1CC[C@H]2[C@@H]3CC[C@H]4C[C@@H](O)CC[C@]4(C)[C@H]3CC[C@]12C [compound 185, cholest-3β,25-diol] | 0.233 µM | 3.17 h |
| C[C@H](CCCC(C)(C)O)[C@H]1CC[C@H]2[C@@H]3CC[C@H]4[C@@H](O)[C@@H](O)CC[C@]4(C)[C@H]3CC[C@]12C [compound 198, 5α-Cholest-30,40,25-triol] | 0.106 µM | 1.2 h |
| C[C@H](CCCC(C)(C)O)[C@H]1CC[C@H]2[C@@H]3CC[C@H]4[C@H](O)[C@@H](O)CC[C@]4(C)[C@H]3CC[C@]12C [compound 204, 5α-cholest-3β,4α,25-triol] | 0.395 µM | 3.97 h |
| C[C@H](CCCC(C)(C)O)[C@H]1CC[C@H]2[C@@H]3C(=O)C[C@H]4C[C@@H](O)CC[C@]4(C)[C@H]3CC[C@]12C [compound 216, 3P,25-dihydroxy-5α-cholest-7-one] | 0.379 µM | 0.385 h |
| C[C@H](CCCC(C)(C)O)[C@H]1CC[C@H]2[C@@H]3CC[C@H]4C(=O)[C@@H](O)CC[C@]4(C)[C@H]3CC[C@]12C [compound 238, 3β,25-Dihydroxy-5α-cholest-4-one] | 0.049 µM | 1.26 h |
| C[C@H](CCCC(C)(C)O)[C@H]1CC[C@H]2[C@H]3[C@H](CC[C@]12C)[C@@]1(C)CC[C@H](O)[C@H](O)[C@@H]1CC3(F)F [compound 274, (1R,3aS,3bS,5aR,6R,7S,9aR,9bS,11aR)-4,4-difluoro-1-[(2R)-6-hydroxy-6-methylheptan-2-yl]-9a,11a-dimethylhexadecahydro-1H-cyclopenta[1,2-a]phenanthrene-6,7-diol] | 0.313 µM | > 3.1 h |
| C[C@H](CCCC(O)c1c(F)cc(F)cc1F)[C@H]1CC[C@H]2[C@@H]3CC[C@H]4[C@@H](O)[C@@H](O)CC[C@]4(C)[C@H]3CC[C@]12C (stereo partly drawn) [compound 275, 24-[(2,4,6-difluorophenyl)(hydroxy)methyl]-5α-cholan-3β,4β-diol] | 0.141 µM | 1.52 h |
| C[C@H](CCCC(O)c1cccc(F)c1)[C@H]1CC[C@H]2[C@@H]3CC[C@H]4[C@@H](O)[C@@H](O)CC[C@]4(C)[C@H]3CC[C@]12C (stereo partly drawn) [compound 281, 24-[(3-fluorophenyl)(hydroxy)methyl]-5α-cholan-3β,4β-diol] | 0.111 µM | 1.17 h |
| C[C@H](CCCC(O)c1c(F)cccc1F)[C@H]1CC[C@H]2[C@@H]3CC[C@H]4[C@@H](O)[C@@H](O)CC[C@]4(C)[C@H]3CC[C@]12C (stereo partly drawn) [compound 284, 24-[(2,6-difluorophenyl)(hydroxy)methyl]-5α-cholan-3β,4β-diol] | 0.0874 µM | > 2 h |
| C[C@H](CCCC(O)c1ccccc1)[C@H]1CC[C@H]2[C@@H]3CC[C@H]4[C@@H](O)[C@@H](O)CC[C@]4(C)[C@H]3CC[C@]12C (stereo partly drawn) [compound 305, 24-(hydroxyphenylmethyl)-5α-cholan-3β,4β-diol] | 0.119 µM |  |
| C[C@H](CCCC(C)(C)O)[C@H]1CC[C@H]2[C@@H]3CC[C@H]4CC(C)(O)CC[C@]4(C)[C@H]3CC[C@]12C (some centres unmarked) [compound 307, 3-methylcholest-3,25-diol] | 0.588 µM |  |
| C[C@H](CCCC(C)(C)O)[C@H]1CC[C@H]2[C@@H]3CC[C@H]4CC(CO)CC[C@]4(C)[C@H]3CC[C@]12C (stereo partly drawn) [compound 308, 3-(hydroxymethyl)-5α-cholest-25-ol] | 0.979 µM |  |
| C[C@H](CCCC(C)(C)O)[C@H]1CC[C@H]2[C@@H]3CC[C@H]4CC(C(=O)O)CC[C@]4(C)[C@H]3CC[C@]12C (stereo partly drawn) [compound 309, 25-hydroxy-5α-cholest-3-carboxylic acid] | 8.96 µM |  |
| C[C@H](CCCC(C)(C)O)[C@H]1CC[C@H]2[C@@H]3CC[C@H]4CC(NS(C)(=O)=O)CC[C@]4(C)[C@H]3CC[C@]12C (stereo partly drawn) [compound 310, N-[(1R,3aS,3bR,9aS,9bS,11aR)-1-[(2R)-6-hydroxy-6-methylheptan-2-yl]-9a,11a-dimethylhexadecahydro-1H-cyclopenta[1,2-a]phenanthrene-7-yl]methanesulfonamide] | 1.41 µM |  |
| COc1ccccc1C(O)CCC[C@@H](C)[C@H]1CC[C@H]2[C@@H]3CC[C@H]4C[C@@H](O)CC[C@]4(C)[C@H]3CC[C@]12C (stereo partly drawn) [compound 312, 24-[hydroxy(2-methoxyphenyl)methyl]-5α-cholan-3β-ol] | 0.18 µM |  |
| C[C@H](CCCC(C)(C)O)[C@H]1CC[C@H]2[C@@H]3CC[C@H]4[C@@H](O)[C@@H](OC(=O)CO)CC[C@]4(C)[C@H]3CC[C@]12C [compound 313, (1R,3aS,3bS,5aR,6R,7S,9aR,9bS,11aR)-6-hydroxy-1-[(2R)-6-hydroxy-6-methylheptan-2-yl]-9a,11a-dimethylhexadecahydro-1H-cyclopenta[1,2-i]phenanthren-7-yl hydroxyacetate] | 0.07 µM |  |
| C[C@H](CCCC(O)c1ccc(F)cc1)[C@H]1CC[C@H]2[C@@H]3CC[C@H]4[C@@H](O)[C@@H](O)CC[C@]4(C)[C@H]3CC[C@]12C (stereo partly drawn) [compound 316, 24-[(4-fluorophenyl)(hydroxy)methyl]-5α-cholan-3β,4β-diol] | 0.1 µM |  |
| COc1ccccc1C(O)CCC[C@@H](C)[C@H]1CC[C@H]2[C@@H]3C(=O)C[C@H]4[C@@H](O)[C@@H](O)CC[C@]4(C)[C@H]3CC[C@]12C (stereo partly drawn) [compound 320, 4β-hydroxy-3β-hydroxy-24-[hydroxy(2-methoxyphenyl)methyl]-5α-cholan-7-one] | 0.16 µM |  |
| COC(=O)C1CC[C@@]2(C)[C@@H](CC[C@@H]3[C@@H]2CC[C@]2(C)[C@@H]([C@H](C)CCCC(C)(C)O)CC[C@@H]32)C1 (stereo partly drawn) [compound 321, methyl 25-hydroxy-5α-cholest-3-carboxylate] | 7.2 µM |  |
| C[C@H](CCCC(O)c1ccccc1Cl)[C@H]1CC[C@H]2[C@@H]3CC[C@H]4[C@@H](O)[C@@H](O)CC[C@]4(C)[C@H]3CC[C@]12C (stereo partly drawn) [compound 322, 24-[(2-chlorophenyl)(hydroxy)methyl]-5α-cholan-3β,4β-diol] | 0.61 µM |  |
| Cc1ccccc1C(O)CCC[C@@H](C)[C@H]1CC[C@H]2[C@@H]3CC[C@H]4[C@@H](O)[C@@H](O)CC[C@]4(C)[C@H]3CC[C@]12C (stereo partly drawn) [compound 323, 24-[hydroxy(2-methylphenyl)methyl]-5α-cholan-3β,4β-diol] | 0.25 µM |  |
